Results published in patent US7625891B2, “Heterocylic antiviral compounds” (Roche Palo Alto LLC, priority 2007, dated 2009).

Tests used:
L1.2hCCR5 cells = assay: Chemotaxis assay; assay type: cell-based; conditions: Homo sapiens; Inhibition of RANTES stimulated chemotaxis
Text: The chemotaxis assay is a functional assay which measures the ability of a non-adherent cell line expressing human CCR5 receptor to migrate across a membrane in response to either test compounds or natural attractant ligand(s) (i.e., RANTES, MIP-1β). Generally, chemotaxis assays monitor the directional movement or migration of a suitable cell (such as a leukocyte (e.g., lymphocyte, eosinophil, basophil)) into or through a barrier (e.g., endothelium, a permeable filter membrane), toward, from a first surface of the barrier toward an opposite second surface containing attractant ligands. Membranes or filters provide convenient barriers to monitor the directional movement or migration of a suitable cell into or through a filter, toward increased levels of an attractant. In some assays, the membrane is coated with a substance to facilitate adhesion, such as ICAM-1, fibronectin or collagen. Such assays provide an in vitro approximation of leukocyte “homing”. […] The filter is then removed and the density of the cells that have migrated to the bottom wells is detected using CyQUANT^R cell proliferation assay kit (Invitrogen) and the Spectra MAX GeminiXS plate reader (Molecular Devices) according to the manufacturers' instructions. Using the fluorescence measurements the percent migration is determined by % migration=[1−(max−obs)/(max−min)]×100. […] This is calculated with Excel Fit.

CCR5 = CCR5 (Homo sapiens, UniProt P51681); assay: Human CCR5 receptor-ligand binding assay (125I RANTES, CHO-Gα16-hCCR5 cells); design: expressed in transfected cells; conditions: specific 125I RANTES binding, CHO-Gα16-hCCR5 cells; read-out: IC50
Sequence of CCR5 (P51681 whole entry): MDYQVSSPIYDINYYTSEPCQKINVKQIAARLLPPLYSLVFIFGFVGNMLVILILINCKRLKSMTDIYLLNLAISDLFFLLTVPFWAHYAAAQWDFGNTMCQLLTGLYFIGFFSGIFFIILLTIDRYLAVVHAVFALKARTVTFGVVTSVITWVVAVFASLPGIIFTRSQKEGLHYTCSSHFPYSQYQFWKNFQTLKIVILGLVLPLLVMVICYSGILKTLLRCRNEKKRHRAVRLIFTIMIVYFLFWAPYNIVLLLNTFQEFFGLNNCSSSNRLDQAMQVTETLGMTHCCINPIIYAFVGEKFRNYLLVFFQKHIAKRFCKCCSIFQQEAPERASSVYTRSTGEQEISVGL
Procedure: The construct was transfected into CHO-Gα16 cells by using Fugene Reagent (Roche).
Adherent cells in […] tissue culture flask (ca. 90% confluent) were harvested using 1 mM EDTA in PBS (phosphate-buffered saline) without Ca^2+ and Mg^2+. Cells were washed twice with PBS containing no Ca^2+ and Mg^2+.
Eighty μl CHO-Gα16-hCCR5 (1×10^6/mL) cells were added to 96 well plates.
The compound dilutions were made in PBS, 1% BSA. Total reaction volume was 100 μl per well. The test compounds were added to the cells prior to the addition of radioligand.
After incubation, the cells were harvested onto GF/C filter plates using Packard cell harvester. Filters were pretreated with 0.3% PEI/0.2% BSA for 30 min. The filter plate was washed rapidly 5 times with 25 mM HEPES, 500 mM NaCl, 1 mM CaCl2 and 5 mM MgCl2 adjusted to pH 7.1. Plates were dried in oven (70° C.) for 20 min, added with 40 μl scintillation fluid and sealed with Packard TopSeal-A. Packard Top Count was used to measure of the radioactivity for 1 min per well.
Total binding was determined with control wells added with radioisotope and buffer and the non-specific binding was determined using an excess cold RANTES to some of the control wells. Specific binding was determined by subtracting the non-specific form total binding. […] IC50 values were determined using varying concentrations of the test ligand in triplicates and the data was analyzed using GraphPad Prism (GraphPad, San Diego, Calif.).

- IC50 (L1.2hCCR5 cells): 237 nM
- IC50 (CCR5): 16.2 nM
SMILES: CCCCC1CN(C[C@H]2CC[C@@H](OC)CC2)C(=O)OC12CCN(C1(C)CCN(C(=O)c3c(C)ncnc3C)CC1)CC2 (relative stereo) [Compound I-2, 5-Butyl-9-[1-(4,6-dimethyl-pyrimidine-5-carbonyl)-4-methyl-piperidin-4-yl]-3-(cis-4-methoxy-cyclohexylmethyl)-1-oxa-3,9-diaza-spiro[5.5]undecan-2-one]
